The values that follow come from patent publication US8389558B2, “Bendamustine amphiphilic anionic compositions” (Supratek Pharma Inc., priority 2009, dated 2013).

Series [1] is described as follows: Bendamustine chemical stability in formulations with amphiphilic anionic agents and phosphate buffer (HPLC, first order kinetics). It counts as physicochemical. The following applies: 0.6 mg/mL bendamustine, 1% (w/v) aqueous amphiphilic anionic agent, 6 mM phosphate buffer pH 7.2, 25° C.; read-out: decomposition half time (T½) of bendamustine. The procedure:
Formulations were prepared by dissolving bendamustine hydrochloride in pre-equilibrated 1% (w/v) aqueous solution of amphiphilic anionic agent containing 6 mM phosphate buffer, pH 7.2. The final concentration of bendamustine was 0.6 mg/mL. The formulations were incubated at 25° C., and were periodically analyzed by HPLC as follows. 10 μL samples were separated using Waters SymmetryShield RP-18 3.5 μm column (4.6×50 mm) at the flow of 1.5 mL/min of acetonitrile-water gradient containing 0.1% TFA. Peak detection has been performed with means of UV absorption detection at 260 nm. The area of the peak of Bendamustine was used to evaluate the rate of drug decomposition in the first order kinetics model.

The conditions of series [2]: 23° C.; cited from earlier work.

Where a name gives a salt, the structure may show the parent alone.

Take `Cn1c(CCCC(=O)O)nc2cc(N(CCCl)CCCl)ccc21` [Control (phosphate buffer), bendamustine hydrochloride]: the half-life at 0.6 mg/mL in series [1] was determined as 44 min. `Cn1c(CCCC(=O)O)nc2cc(N(CCCl)CCCl)ccc21` [bendamustine hydrochloride]: the “time for which stable in saline solution” value in series [2] is 9 h.
